The record followed here is US20250161260A1, “USE OF DELTA-TOCOTRIENOL TO REDUCE THE PROGRESSION OF A NEOPLASM TO A CANCER” (H. LEE MOFFITT CANCER CENTER AND RESEARCH INSTITUTE, INC., priority 2022, published 2025).

The IC50 is the concentration that gives 50% inhibition. Higher therefore signals weaker potency.

For data set [1], the system named is LGKC2 cells. Description: Cell proliferation by MTT assay, LGKC2. In kind it is cell-based, murine. The following applies: LGKC2, 48 h. How it is done:
(§1) LGKC1 (left) and LGKC2 cells were treated with varying doses of DT3 for 24, 48, and 72 h and cell proliferation were measured by MTT assay.
(§2) We further studied the effect of DT3 on the proliferation of recently described murine IPMN cell lines LGKC1 & LGKC2 derived from constitutively active Kras and Gnas murine model of pancreatic cystic lesions [p48-Cre; KrasG12D; Rosa26R-rtTA-TetO-GnasR201C]. […] These IC50 doses were used for downstream functional studies in LGKC1 and LGKC2 cell lines.

Another data set deals with IPMN neoplastic cells. Nature of the data set: IHC of cleaved caspase-3 and BAX in tumor specimens of patients treated with DT3. It counts as in vivo, human. The method, then: Lower panel is IHC stained for the pro-apoptotic protein Bax, illustrating the association of DT 3 induction of apoptosis with increased expression of Bax
(§3) DT3 has been widely used as a dietary supplement for its presumptive benefit in promoting health by decreasing serum cholesterol levels. […] In an NCI-sponsored phase 1 study (NCT00985777), we enrolled 9 out of 25 patients with IPMNs who were treated with DT3 for 2 weeks. […] In our IHC analyses of tumor specimens, we observed a significant induction of cleaved caspase-3 and BAX in the IPMN neoplastic cells of 7 of 9 patients (77%) treated at doses of 100 mg orally twice daily or higher (FIG. 1). We identified 400 mg BID as a Biological Effective Dose (BED) for DT3 in our phase I trial^33. Therefore, we propose to confirm DT3 activity on IPMNs at 400 mg twice daily in a phase II trial, since this was the most bioactive dose observed in our phase I trial.

For data set [2], the system named is LGKC2 cells. Description: Cell cycle analysis by flow cytometry, LGKC2. In kind it is cell-based, murine. The following applies: LGKC-2, IC50 dose, 48 h, double thymidine block. The method, then: (§4) LGKC1 (9A, 9C, 9E) and LGKC2 (9B, 9D, 9E) cells were treated with IC50 dose of DT 3 for 48 h. Apoptosis was measured by flow cytometry following annexin V and propidium iodide staining (9A, 9B). For cell cycle analysis by flow cytometry (9C, 9D) cells were synchronized with double thymidine block prior to treatment with DT 3. Following the treatment, cell lysates were prepared and impact on downstream signaling was performed by immunoblotting using the indicated antibodies (9E) and subjected to RNA sequencing (9F).
(§5) To determine if the reduced cell proliferation of IPMN cells by DT3 were due to its impact on cell cycle or cell death, we assayed apoptosis and cell cycle analysis by flow cytometry. […] RNA seq analysis of the treated cells further indicated significant upregulation of biological processes associated with programmed cell death, cell proliferation, immune response, and collagen fibril organization (FIG. 9F).
(In general: In flow cytometry, cells or beads pass a laser one at a time.)

Data set [3] relates to LGKC2 cells. Description: Immunoblotting of downstream signaling, LGKC2. It counts as cell-based, murine. As to conditions: LGKC2, IC50 dose. How it is done: as §4, §5
Data set [4] relates to β-catenin expression in HPNE-Kras cells. Description: β-catenin expression in HPNE-Kras cells. In kind it is cell-based.
Data set [5] concerns β-catenin expression in PCSCs. Description: β-catenin expression in human PC stem cells (PCSCs). It counts as cell-based. The following applies: less inhibition with DT 3 without Wnt3a pretreatment.
A further data set relates to HPNE-Kras cells. Nature of the data set: Apoptosis (C-PARP) and signaling protein expression in HPNE-Kras cells. In kind it is cell-based.
For data set [6], the system named is LGKC1 cells. Nature of the data set: Immunoblotting of downstream signaling, LGKC1. The following applies: LGKC1, IC50 dose. In kind it is cell-based, murine. How it is done: as §4, §5
Data set [7] concerns Wnt receptor activity in 3T3 cells. Nature of the data set: Wnt receptor activity (luciferase units) in 3T3 cells. It counts as cell-based. As to conditions: after Wnt3a.
Data set [8] deals with β-catenin expression in 3T3 cells. Description: β-catenin expression in 3T3 cells. It counts as cell-based.
In a further data set the test system is HPNE cells. Nature of the data set: Apoptosis (C-PARP) in HPNE cells. In kind it is cell-based.
The subject of data set [9] is LGKC1 cells. Description: Apoptosis by flow cytometry (annexin V / propidium iodide), LGKC1. As to conditions: LGKC1, IC50 dose, 48 h. In kind it is cell-based, murine. The method, then:
as §4, §5

For data set [10] the following is noted: human, in vivo. How it is done: as §3
The subject of data set [11] is LGKC2 cells. Nature of the data set: Apoptosis by flow cytometry (annexin V / propidium iodide), LGKC2. As to conditions: LGKC2, IC50 dose, 48 h. It counts as cell-based, murine. How it is done:
as §4, §5

Data set [12] concerns LGKC1 cells. Nature of the data set: Cell cycle analysis by flow cytometry, LGKC1. It counts as cell-based, murine. As to conditions: LGKC-1, IC50 dose, 48 h, double thymidine block. How it is done: as §4, §5
Data set [13] concerns LGKC1 cells. Description: Cell proliferation by MTT assay, LGKC1. In kind it is cell-based, murine. The following applies: LGKC1, 48 h. How it is done: as §1, §2
(Tetrazolium dyes change colour on reduction, which living cells bring about.)

The mark [14] stands for this setting: 100 mg orally twice daily or higher, 2 weeks.

As to `CC(C)=CCC/C(C)=C/CC/C(C)=C/CC[C@]1(C)CCc2cc(O)cc(C)c2O1` [DT3, δ-tocotrienol], the IC50 in the data set on LGKC2 cells [1] came out at 29.4 µM; in the data set on LGKC1 cells [13], 25.3 µM. Besides, the “patients with significant induction of cleaved caspase-3 and BAX in IPMN neoplastic cells” value with IPMN neoplastic cells (setting [14]) is given as 7 of 9. Also, the “percent of patients with significant induction of cleaved caspase-3 and BAX in IPMN neoplastic cells” value with IPMN neoplastic cells (setting [14]) is listed as 77%. Also, the “apoptosis as measured by cleaved caspase-3 expression (IHC)” value in the data set on IPMN neoplastic cells (patients with IPMN) is listed as “significantly induced apoptosis”. Also, the cell cycle progression entry was “no effect on cell cycle progression” in the data set with LGKC2 cells [2]; “G2/M arrest and accumulation of cells in S-phase” in the data set on LGKC1 cells [12]. The expression of b-catenin result in the data set on LGKC2 cells [3] and in the data set with LGKC1 cells [6] was “no effect” throughout. Also, the “p-AKT, p-ERK1/2, cyclin D1” value in the data set on LGKC2 cells [3] and in the data set with LGKC1 cells [6] was “significant reduction” each time. Also, the “pGSK3β and cleaved PARP” value in the data set on LGKC2 cells [3] and in the data set with LGKC1 cells [6] was “upregulation” throughout. Also, the β-catenin expression result in data set [4] and in data set [5] was “abolished” in each case. The “apoptosis (C-PARP)” value in the data set with HPNE-Kras cells was “selectively induced apoptosis”; in the data set on HPNE cells it was “not in HPNE cells”. The “expression of MUC4, MUC16, β-catenin and downstream proteins (C-myc, cyclin D1, survivin)” value in the data set on HPNE-Kras cells is reported as “decreased the expression”. Besides, the “pAKT and pERK” value in the data set on HPNE-Kras cells is “inhibited”. For the same molecule, the “agonist (Wnt3a)-induced Wnt receptor activity (luciferase units)” value in data set [7] is “significantly inhibited”. Further, in [8], the “Wnt agonist-induced β-catenin expression” value is reported as “inhibited”. Besides, the apoptosis result in the data set with LGKC1 cells [9] and in the data set on LGKC2 cells [11] was “induced apoptosis” throughout. For the same molecule, the half-life result in data set [10] is “approximately 4 hours”. Besides, the “toxicity (dose-limiting toxicities, drug-related adverse events, postoperative complications)” value in data set [10] is “no evidence of toxicity”.

B1: DKK1: Wnt antagonist (protein, UniProt O94907 32-266, looked up)
Dickkopf-related protein 1: TLNSVLNSNAIKNLPPPLGGAAGHPGSAVSAAPGILYPGGNKYQTIDNYQPYPCAEDEECGTDEYCASPTRGGDAGVQICLACRKRRKRCMRHAMCCPGNYCKNGICVSSDQNHFRGEIEETITESFGNDHSTLDGYSRRTTLSSKMYHTKGQEGSVCLRSSDCASGLCCARHFWSKICKPVLKEGQVCTKHRRKGSHGLEIFQRCYCGEGLSCRIQKDHHQASNSSRLHTCQRH
Regarding B1, the β-catenin expression entry in data set [4] and in [5] was “abolished” in each case. Besides, the “agonist (Wnt3a)-induced Wnt receptor activity (luciferase units)” value in data set [7] was “inhibited”. Also, the “Wnt agonist-induced β-catenin expression” value in data set [8] is reported as “inhibited”.
